The text below walks through data of PubChem BioAssay (NCI).

What all share (experiment): NCI-60 cell line screen, 48 h
The test system of test [1] is CAKI-1 renal.
The subject of test [2] is NCI-H23 lung.
In test [3] the test system is MDA-MB-435.
For test [4], the system named is HCC-2998 colon.
Test [5] deals with A498 renal.
Test [6] concerns HT29 colon.
In test [7] the test system is OVCAR-4 ovarian.
The test system of test [8] is HOP-92 NSCLC.
Test [9] deals with SK-MEL-5 melanoma.
Test [10] concerns MCF7 breast.

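The compound was tested at five concentrations on cells cultured in 96-well plates, with a 48-hour exposure period. GI50 = concentration required for 50% inhibition of growth. Definition used: TGI = concentration required for complete inhibition of growth.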

Regarding `O=C(O)CSc1nc2ccccc2[nH]1`, the TGI in test [1], in test [2], in test [3], in test [4], in test [5] and in [6] was above 100 µM in each case. For the same compound, the TGI in test [7] and in test [8] was above 100 µM throughout.

In the case of `COc1cc(CN(C)N2C(=O)c3cccc4cc([N+](=O)[O-])cc(c34)C2=O)cc(OC)c1OC`, the TGI in [1], in test [9], in test [2], in test [3], in test [10] and in [5] was above 100 µM throughout. The TGI in test [6], in test [7] and in test [8] was above 100 µM throughout.

Turning to `ClCc1nnc2n1-c1ccc(Cl)cc1SC2`, the TGI in test [9] stood at 9.49 µM; in [2], 8.2 µM; in test [4], 11 µM; in test [10], 12.2 µM; in test [5], 16.1 µM; in test [6], 10.2 µM. Moreover, the TGI in test [7] was found to be 12.6 µM; in test [8], 9.26 µM.

Regarding `CCNc1nc2c(=O)n(C)c(=O)n(C)c2s1`, the TGI in test [2], in test [4], in [5], in [6], in [7] and in test [8] was above 100 µM in each case.

Turning to `CCOC(=O)c1csc(NC(=O)CCN2CCOCC2)n1`, the TGI in [1], in [9], in test [2], in test [3], in test [4] and in test [10] was above 100 µM each time. Besides, the TGI in [5], in test [6], in test [7] and in test [8] was above 100 µM each time.

Take `Cc1cc(C)c(S(=O)(=O)N(CCCCCCN)OCCCON(CCCCCCN)S(=O)(=O)c2c(C)cc(C)cc2C)c(C)c1`: the TGI came out at 3.7 µM in [1]; 3.11 µM in [2]; 3.99 µM in [3]; 3.66 µM in test [10]; 3.02 µM in [5]; 3.05 µM in test [6]. The TGI worked out at 3.38 µM in test [7] and 2.96 µM in test [8].

For `O=c1n(Cc2ccccc2)c2ccccc2n1CC1CS1` (stereo unspecified), the TGI in test [1], in test [4], in test [7] and in test [8] was above 100 µM each time.

With `C=C1CC2(C)CCC(OC(=O)C3(C)OC3C)C(C)(OC(C)=O)C2CC1=C(C)C` (stereo unspecified), the TGI in test [9], in test [2], in [3], in test [4], in test [10] and in test [5] was above 100 µM throughout. Also, the TGI in test [6], in test [7] and in [8] was above 100 µM each time.

For `CC1(C)CCCC2(C)[C@@H]1CC[C@]13C[C@](C)(CC[C@@H]21)[C@@H]3CO` (stereo partly specified), the TGI in test [1], in test [9], in test [2], in test [4], in test [6] and in [7] was above 100 µM each time. The compound also returned a TGI in test [8] above 100 µM.

Regarding `Fc1cc(C2=Nn3c(nnc3-c3cc(F)c(Cl)cc3Cl)SC2)c(Cl)cc1Cl`, the GI50 was 20.6 µM in [1]; 13.4 µM in test [9]; 21.8 µM in [2]; 27.8 µM in test [3]; 31.6 µM in test [4]; 16.8 µM in [10]. Besides, the GI50 was 20.1 µM in [6], 34.5 µM in test [7] and 11.3 µM in test [8]. For the same compound, the TGI was 60.7 µM in test [1]; 30.3 µM in [9]; above 100 µM in test [2]; 83.2 µM in [3]; above 100 µM in test [4]; above 100 µM in [10]. Also, the TGI in [6] is 56.3 µM; in test [7], above 100 µM; in test [8], above 100 µM.

Regarding `COc1ccc2c(c1)C(=O)/C(=C/c1ccccc1)C2`, the TGI was 60.1 µM in test [1]; above 100 µM in [9]; above 100 µM in [2]; above 100 µM in test [3]; above 100 µM in test [10]; above 100 µM in test [5]. Further, the TGI in test [6], in test [7] and in test [8] was above 100 µM each time.
